The numbers were not newly measured in patent publication US9555015B2, “Antimicrobial compositions and methods for their use” (Dermcare-Vet Pty Ltd, priority 2004, dated 2017), which cites them from elsewhere.

For series [1] the following is noted: especially in concentrations as high as 2%, particularly when the tympanic membrane has been ruptured.
The conditions of series [2]: 0.2% chlorhexidine, external ear, ruptured tympanic membranes.
For series [3] the following is noted: 0.02% chlorhexidine compositions, bladder instillation.

With `[H]/N=C(\N/C(=N/[H])NCCCCCCNC(=N)NC(=N)Nc1ccc(Cl)cc1)Nc1ccc(Cl)cc1` [chlorhexidine], the ototoxicity entry in series [1] was “ototoxic”. Besides, in series [2], the ototoxic effects result is “no ototoxic effects”. Moreover, the bladder adverse effect result in series [3] was “chemical cystitis resulting in haematuria”.
